Reference: patent publication US10590422B2, “Anticancer therapeutic intervention” (PHYZAT BIOPHARMACEUTICALS, LDA., priority 2017, dated 2020)
d = 2'-deoxy (DNA); r = 2'-OH (RNA)

Tests used:
[1] = system: human colon cancer HTC-116 cells; assay: Cell proliferation assay (calcein-AM) in human colon cancer HTC-116 cells; format: cell-based; conditions: for cell proliferation / proliferation: treatment 6 h; for cell proliferation: 72 h exposure, FIG. 14; for proliferation: at 72 h, 0.17% Lipofectamine 2000 or 0.1% Injectin, FIGS. 19B and 20B
Protocol: (§1) SK-HEP-1, T24, HT-1080 and HCT-116 cell lines were maintained in a humidified atmosphere of 5% CO2 at 37° C. SK-HEP-1 cells were grown in RPMI-1640 (Sigma, St. Louis, Mo.) supplemented with 20% fetal bovine serum (FBS) (Gibco, UK), 100 U/mL penicillin G, 0.25 μg/mL amphotericin B, 100 μg/mL streptomycin (Gibco, UK), 25 mM sodium bicarbonate (Merck, Germany) and 25 mM N-2-hydroxyethylpiperazine-N′-2-ethanosulfonic acid (HEPES) (Sigma, St. Louis, Mo.). T24 and HT-1080 cells were grown, respectively, in Dulbecco's Modified Eagle's Medium (DMEM)—high glucose (Sigma, St. Louis, Mo.) and DMEM—low glucose (Sigma, St. Louis, Mo.), supplemented with 10% FBS (Gibco, UK), 100 U/mL penicillin G, 0.25 μg/mL amphotericin B, 100 μg/mL streptomycin (Gibco, UK), 25 mM sodium bicarbonate (Merck, Germany) and 25 mM HEPES (Sigma, St. Louis, Mo.). HCT-116 cells were grown in McCoy's 5A (Sigma, St. Louis, Mo.) supplemented with 10% FBS (Gibco, UK), 100 U/mL penicillin G, 0.25 μg/mL amphotericin B, 100 μg/mL streptomycin (Gibco, UK), 25 mM sodium bicarbonate (Merck, Germany) and 25 mM HEPES (Sigma, St. Louis, Mo.). For all cell lines the medium was changed every 2 days, and cells reached confluence 3-4 days after initial seeding. For subculturing, cells were dissociated with 0.25% trypsin-ethylenediaminetetraacetic acid (EDTA) (Sigma, St. Louis, Mo.), split 1:15 or 1:20 and subcultured in a 21-cm^2 growth area (Sarstedt, Germany).
Cell proliferation was measured using calcein-AM (Thermo Fisher Scientific, USA). The membrane permeant calcein-AM, a nonfluorescent dye, is taken up and converted by intracellular esterases to membrane impermeant calcein, which emits green fluorescence. Cells were plated in 96-well plates with black walls clear bottom (BD Biosciences, USA) and incubated 24 h under normal growth conditions. Cells were incubated with test items at 37° C., 5% C02. After the incubation period, serum and antibiotic was restored and cells were further incubated at normal conditions during 72 h. After treatment with test substances or vehicle, cells were washed twice with Hanks' medium and loaded with 2 μM calcein-AM in Hanks' medium, at 37° C. for 30 min. Fluorescence was measured at 485 nm excitation and 530 nm emission wavelengths in a microplate spectrofluorometer (Gemini EM, Molecular Devices). Nine consecutive fluorescence measurements are performed per well, to allow fluorescence readings in the whole area of the well, which was then considered for the calculation of mean fluorescence per well. To determine minimum staining for calcein (calceinmin), eight wells were treated with ethanol 30 min before calcein-AM addition. The percent cell number is calculated as [(calceinsample)/(calceincontrol)]×100.

[2] = system: ASCT2 mRNA; assay: ASCT2 gene expression (RT-qPCR) after ASCT2 gene silencing in human colon cancer HTC-116 cells; format: cell-based; conditions: treatment 6 h, 72 h, 0.17% Lipofectamine 2000 or 0.1% Injectin, FIG. 20A
Protocol: as §1
(§2) Total RNA was isolated and purified using the SV Total RNA Isolation System (Promega, USA) according to manufacturer's instructions. RNA quality and concentration were verified in the NanoDrop ND1000 Spectrophotometer (Thermo Scientific, USA), and RNA integrity and genomic DNA contamination were evaluated by agarose gel electrophoresis. Total RNA (1 μg) was converted into cDNA using the Maxima Scientific First Strand cDNA Synthesis Kit for RT-qPCR (Thermo Scientific, USA), according to instructions. The following protocol was used: 1st step, 10 min at 25° C.; 2nd step, 15 min at 50° C.; 3rd step, 5 min at 85° C. cDNA was used for qPCR analysis using Maxima SYBR Green qPCR Master Mix (Thermo Scientific, USA) in the StepOnePlus instrument (Applied Biosystems, USA). QuantiTect Primer Assay for LAT1 and ASCT2 and for the endogenous control gene GAPDH (Quiagen, Germany) were used. The qPCR reaction was performed in 96-well PCR plates (Sarstedt, Germany) as follows: one cycle of 10 min at 95° C., followed by 40 PCR cycles at 95° C. 15 s and 60° C. 60 s. […] No template controls were always evaluated for each target gene. Quantification cycle (Cq) values were generated automatically by the StepOnePlus 2.3 Software and the ratio of the target gene was expressed in comparison to the endogenous control gene GAPDH.
(§3) Cells were plated in 24-well (Sarstedt, Germany) or 6-well plates (Sarstedt, Germany) or 96-well plates with black walls clear bottom (BD Biosciences, USA) and incubated 24 h under normal growth conditions. siRNAs against ASCT2 and transfection agent were diluted at desired concentrations and mixed according to transfection agent manufacturer's instructions. The mixture was incubated 20 min at RT for siRNA-complex formation, after which it was added to the cells and incubated at 37° C., 5% CO2. After the incubation period, serum and antibiotic was restored and cells were further incubated at normal conditions for the desired time points until evaluation of ASCT2 activity or ASCT2 expression (immunoblotting and RT-qPCR).

[3] = system: LAT1 mRNA; assay: LAT1 gene expression (RT-qPCR) after LAT1 gene silencing in human colon cancer HTC-116 cells; format: cell-based; conditions: treatment 6 h, 72 h, 0.17% Lipofectamine 2000 or 0.1% Injectin, FIG. 19A
Protocol: as §1, §2
as §3, with “LAT1” for “ASCT2”

[4] = system: LAT1 mRNA; assay: LAT1 gene expression (RT-qPCR, relative to GAPDH) after LAT1 gene silencing in SK-HEP-1 cells; format: cell-based, human; conditions: at 24 h; for LAT1 mRNA relative abundance: liver carcinoma SK-HEP-1 cells, 10 nM siRNA, treatment 6 h, Lipofectamine 2000, FIG. 4A
Protocol: as §1, §2
as §3, with “LAT1” for “ASCT2”

[5] = system: LAT1; assay: LAT1 activity: [^14C]-L-leucine uptake in SK-HEP-1 cells after LAT1 gene silencing; format: cell-based, human; conditions: for inhibiting sodium-independent [^14C]-L-leucine transport: LAT1 siRNA, general statement, conditions not given; for [^14C]-L-leucine (0.25 μM) uptake at initial rate of uptake (1 min): liver carcinoma SK-HEP-1 cells, 10 nM siRNA, treatment 6 h, at 24 h and 48 h, 0.4% Lipofectamine 2000, FIGS. 5A and 5C
Protocol: Cells were plated in 24-well plates (Sarstedt, Germany) and grown until confluence was reached. On the day of the experiment, cell culture medium was aspirated and cells were preincubated for 15 min in Hanks' medium (NaCl 140 mM, KCl 5 mM, MgSO4.7H2O 0.8 mM, K2HPO4 0.33 mM, KH2PO4 0.44 mM, MgCl2.6H2O 1 mM, CaCl2) 0.025 mM, Tris-HCl 9.75 mM, pH 7.4). Uptake was initiated by addition of Hanks' medium with 0.25 μM [^14C]-L-leucine in the absence and in the presence of 3 mM unlabeled L-leucine. During preincubation and incubation cells were continuously shaken and maintained at 37° C. Uptake was terminated after 1 min by rapid removal of uptake solution by means of a vacuum pump connected to a Pasteur pipette, followed by a rapid wash with Hanks' medium. Subsequently, cells were solubilized in 0.1% vol/vol Triton X-100 (dissolved in 5 mM Tris-HCl, pH 7.4), and radioactivity was measured by liquid scintillation counting.
as §3, with “LAT1” for “ASCT2”

“61/395/396 (chain 1 UGAACUGCUACAGCGUGAATT; chain 2 UUCACUCUGUAGCAGUUCACG; siRNA; chain 1: sugars from the 5' end r19 d2, backbone not given here; chain 2: RNA, backbone not given here)” was tested. Which cell proliferation ([1]; 0.1% Injectin) did it give?
The cell proliferation was “decreased”.

“267/399/400 (sense GGUCCUGUACCGUCCUCAATT; antisense UUGAGGACGGUACAGGACCTT; siRNA; sugars by position and backbone not given here; further chemistry not fully specified)” was tested. Which “ASCT2 mRNA relative abundance” value [2] did it give?
The value was “significantly decreased”.

And the cell proliferation ([1]; 0.1% Injectin)?
Its cell proliferation is “decreased”.

And the proliferation [1]?
Its proliferation is “significantly decreased”.

“61/393/394 (chain 1 UGAACUGCUACAGCGUGAATT; chain 2 UUCACUCUGUAGCAGUUCATT; siRNA; sugars by position and backbone not given here; further chemistry not fully specified)” was tested. Which cell proliferation ([1]; 0.1% Injectin) did it give?
Its cell proliferation is “decreased”.

What about the proliferation [1] of the same substance?
The proliferation was “significantly decreased”.

And the “LAT1 mRNA relative abundance” value [3]?
The value was “significantly decreased”.

What does the source list for “6 (AACATCACGCTGCTCAACGGC; chemistry not given here) [compound 6]”?
LAT1 mRNA relative abundance [4]: decreased; cell proliferation ([1]; 0.1% Injectin): decreased; inhibiting sodium-independent [^14C]-L-leucine transport [5]: particularly effective; [^14C]-L-leucine (0.25 μM) uptake at initial rate of uptake (1 min) [5]: decreased

Which “LAT1 mRNA relative abundance” value [4] does the source give for “61 (CGTGAACTGCTACAGCGTGAA; chemistry not given here) [compound 61]” here?
The value was “decreased”.

What about the “inhibiting sodium-independent [^14C]-L-leucine transport” value [5] of the same substance?
The value was “particularly effective”.

What about the “[^14C]-L-leucine (0.25 μM) uptake at initial rate of uptake (1 min)” value [5] of the same substance?
The value was “decreased”.

“278/407/408 (sense CCACGGUCGCCUCUGAGAATT; antisense UUCUCAGAGGCGACCGUGGCA; siRNA; sense: sugars from the 5' end r19 d2, backbone not given here; antisense: RNA, backbone not given here)” was tested. Which “Effect on cell proliferation compared with SEQ ID NO: 278/367/408” value ([1]; 72 h, 0.1% Injectin, p<0.05) did it give?
The value was “significantly greater”.

What about the cell proliferation ([1]; 0.1% Injectin) of the same substance?
Its cell proliferation is “decreased”.

For “278/405/406 (sense CCACGGUCGCCUCUGAGAATT; antisense UUCUCAGAGGCGACCGUGGTT; siRNA; sugars by position and backbone not given here; further chemistry not fully specified)”, which “ASCT2 mRNA relative abundance” value [2] is on record?
The value was “significantly decreased”.

And the “Effect on cell proliferation compared with SEQ ID NO: 278/367/408” value ([1]; 72 h, 0.1% Injectin, p<0.05)?
The value was “significantly greater”.

And the cell proliferation ([1]; 0.1% Injectin)?
The cell proliferation was “decreased”.

What about the proliferation [1] of the same substance?
The proliferation was “significantly decreased”.

With “58/389/390 (sense UCGCCACCUACCUGCUCAATT; antisense UUGAGCAGGUAGGUGGCGATT; siRNA; sugars by position and backbone not given here; further chemistry not fully specified)” as the substance, how does the “Effect on cell proliferation compared with SEQ ID NO: 58” value ([1]; 72 h, 0.1% Injectin, p<0.05) read?
The value was “significantly greater”.

What about the cell proliferation ([1]; 0.1% Injectin) of the same substance?
The cell proliferation was “decreased”.

What about the proliferation [1] of the same substance?
Its proliferation is “significantly decreased”.

What about the “LAT1 mRNA relative abundance” value [3] of the same substance?
The value was “significantly decreased”.

Which “Effect on cell proliferation compared with SEQ ID NO: 58” value ([1]; 72 h, 0.1% Injectin, p<0.05) does the source give for “58/389/412 (sense UCGCCACCUACCUGCUCAATT; antisense UUGAGCAGGUAGGUGGCGAUG; siRNA; sense: sugars from the 5' end r19 d2, backbone not given here; antisense: RNA, backbone not given here)” here?
The value was “significantly greater”.

What about the cell proliferation ([1]; 0.1% Injectin) of the same substance?
The cell proliferation was “decreased”.

What does the source list for “22 (AACATTGTGCTGGCATTATAC; chemistry not given here) [compound 22]”?
LAT1 mRNA relative abundance [4]: decreased; cell proliferation ([1]; 0.1% Injectin): decreased; inhibiting sodium-independent [^14C]-L-leucine transport [5]: particularly effective; [^14C]-L-leucine (0.25 μM) uptake at initial rate of uptake (1 min) [5]: decreased

What does the source list for “34 (AAGGACATCTTCTCCGTCATC; chemistry not given here) [compound 34]”?
LAT1 mRNA relative abundance [4]: decreased; cell proliferation ([1]; 0.1% Injectin): decreased; inhibiting sodium-independent [^14C]-L-leucine transport [5]: particularly effective; [^14C]-L-leucine (0.25 μM) uptake at initial rate of uptake (1 min) [5]: decreased

Which “Effect on cell proliferation compared with SEQ ID NO: 267/356/402” value ([1]; 72 h, 0.1% Injectin, p<0.05) does the source give for “267/401/402 (sense GGUCCUGUACCGUCCUCAATT; antisense UUGAGGACGGUACAGGACCGG; siRNA; sense: sugars from the 5' end r19 d2, backbone not given here; antisense: RNA, backbone not given here)” here?
The value was “significantly greater”.

What about the cell proliferation ([1]; 0.1% Injectin) of the same substance?
Its cell proliferation is “decreased”.

With “58 (CTTCGCCACCTACCTGCTCAA; chemistry not given here) [compound 58]” as the substance, how does the “Effect on LAT1 mRNA relative abundance compared with SEQ ID NO: 34” value ([4]; SK-HEP-1 cells, 10 nM, p<0.05) read?
The value was “significantly greater”.

What about the “LAT1 mRNA relative abundance” value [4] of the same substance?
The value was “decreased”.

And the “Effect on cell proliferation compared with SEQ ID NO: 34” value ([1]; 72 h, 0.1% Injectin, p<0.05)?
The value was “significantly greater”.

And the “inhibiting sodium-independent [^14C]-L-leucine transport” value [5]?
Its value is “particularly effective”.

What about the “Effect on [^14C]-L-leucine uptake compared with SEQ ID NO: 34” value ([5]; SK-HEP-1 cells, 10 nM, p<0.05) of the same substance?
The value was “significantly greater”.

And the “[^14C]-L-leucine (0.25 μM) uptake at initial rate of uptake (1 min)” value [5]?
The value was “decreased”.
